{"source": "paper PMC2885440", "about": "(Journal of natural products, 2010)", "experiment": "Relative polarity on C12 reversed-phase HPLC", "format": "physicochemical", "conditions": "C12 reversed-phase HPLC (Jupiter Proteo C12), linear gradient 50–80% MeOH in 0.05% TFA in 50 min"}
{"substance": "Lys-Ala-Leu1-Leu2-Trp (lariat or depsi) [Paltolide A]", "values": [{"measurement": "polarity among compounds 1–6", "result": "most polar"}]}
